From US10559456B2, “Systems and methods for analyzing an extracted sample using an immiscible extraction solvent” (priority 2014, dated 2020)
Values joined by “and” are separate entries in the source; they are usually repeats but may differ in a detail not shown here. Equal entries are not always repeated.

Assays:
[1] = Log P=log([solute]octanol/[solute]water), un-ionized compound; cited from earlier work
[2] = test system: cholinesterase (ChE); details: human whole blood diluted 10 times, acetylthiocholine 1.8 mg/mL, 5 min incubation in capillary, room temperature
Method: For testing of a particular solvent, 5 μL blood sample (diluted) was injected into the capillary with the extraction solvent plug immediately after the mixing the acetylthiocholine into the blood. After the 5 min incubation in capillary, the TCh/ATch ratio was measured using SFME nanoESI MS. For the control, 5 min after the mixing acetylthiocholine into the diluted blood, the sample was taken and analyzed immediately using SFME nanoESI MS with ethyl acetate as the extraction phase. Spray voltage of 1.5 kV was used for nanoESI.
SFME-nanoESI was applied for monitoring the enzymatic activity of cholinesterase (ChE) in whole blood samples. […] The blood sample was diluted 10 times to slow down the reaction rate as well as to facilitate the slug flows for SFME. The substrate acetylthiocholine iodine was added into the diluted blood sample at a concentration of 1.8 mg/mL, and then 5 μL sample was taken immediately and injected into the capillary with 5 μL extraction phase. The capillary with the sample and the extraction solvent was left in room temperature 25° C. for incubation. The SFME-nanoESI could be performed repeatedly on the same sample and the ratio of the substrate ATCh and the reaction product TCh could be monitored as a function of time to characterize the enzymatic activity of the ChE. […]

Structure (SMILES): CN1[C@H]2CC[C@@H]1[C@@H](C(=O)O)[C@@H](OC(=O)c1ccccc1)C2 [benzoylecgonine]
- Partition coefficient Log P [1]: −0.6 and −0.59

Structure (SMILES): ClC(Cl)Cl [chloroform]
- reduction of ChE activity due to contact with extraction solvent [2]: more than 60%

Structure (SMILES): CCOC(C)=O [ethyl acetate]
- reduction of ChE activity due to contact with extraction solvent [2]: minimal

Structure (SMILES): CN[C@@H](C)Cc1ccccc1 [methamphetamine]
- Partition coefficient Log P [1]: 2.1

Structure (SMILES): N[C@@H](Cc1ccccc1)C(=O)O [phenylalanine]
- Partition coefficient Log P [1]: −1.38
